This test relates to T24 urinary bladder cancer cells. The test can be described thus: Fluorescence enhancement in T24 cells by separate administration of hypericin and particles. Format: cell-based, human. Conditions: Example 9, fluorescent dye = hypericin 1 μmol/l 1 h, then particles 0.001 w/v % 2 h, immediately after observation light irradiation. As for the experimental part:
A solution (100 mmol/l) of hypericin (FUJIFILM Wako Pure Chemical Corporation) in dimethyl sulfoxide (FUJIFILM Wako Pure Chemical Corporation) as a solvent was mixed into an MEM medium (MEM, GlutaMAX™ supplement (Thermo Fisher Scientific)) to form a 1 μmol/l hypericin solution. Further, an aqueous solution of light scattering particles (2) (ii) was mixed into an MEM medium to form a 0.001 w/v % light scattering particle solution. Evaluation was performed as follows. The medium of the T24 cells on a 6-well plate, obtained in Example 3, was removed by an aspirator, and thereto was added 2 ml of MEM medium (Thermo Fisher Scientific). Once again, the MEM medium was removed by an aspirator, thereto was added 2 ml of hypericin solution, and the system was cultured under conditions of 3TC and 5 v/v % CO2 for 1 hour. Then, the hypericin solution of the cells on the 6-well plate was removed by an aspirator, to the residue was added 2 ml of the light scattering particle solution, and the system was cultured under conditions of 3TC and 5 v/v % CO2 for 2 hours. […] Detection of fluorescence was performed in the same manner as in Example 5 by using an inverted fluorescence microscope and, from the images acquired, fluorescence intensities were obtained and relative fluorescence intensities were calculated.

As to `Cc1cc(O)c2c(=O)c3c(O)cc(O)c4c5c(O)cc(O)c6c(=O)c7c(O)cc(C)c8c1c2c(c34)c(c78)c65` [hypericin], the Relative fluorescence intensity was 1.0.

The values are drawn from patent US20190018003A1, “TUMOR DISCRIMINATION METHOD, DIAGNOSTIC AGENT FOR TUMOR, AND SENSITIZER FOR TUMOR DIAGNOSIS” (TOTO LTD., priority 2017, published 2019).
